PubChem BioAssay (NCI)
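Interpolation was linear, between the two tested concentrations surrounding the appropriate level; five concentrations were tested over 48 hours in 96-well plates. The concentration for full growth arrest is given as TGI.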

Tested on: KM12 colon
Assay: NCI tumour cell line growth inhibition, 48 h

Structure (SMILES)	TGI
CC1(C)OC(=O)C(c2cccs2)C(=O)O1	> 100 µM

Tested on: XF 498 CNS
Assay: NCI tumour cell line growth inhibition, 48 h

Structure (SMILES)	TGI
CCCc1nc(N)nc(C(=O)Nc2cccc(C(F)(F)F)c2)c1CC	> 100 µM
O=C1C(Cl)C(c2cc(Br)cc(Br)c2O)N1n1cnc2ccccc2c1=O (stereo not drawn)	61.2 µM
COc1nc(NC2OC(COC(C)=O)C(OC(C)=O)C(OC(C)=O)C2OC(C)=O)c2c(OC(C)=O)c(C)c(=O)oc2n1 (stereo not drawn)	> 100 µM
CC1(C)OC(=O)C(c2cccs2)C(=O)O1	> 100 µM

Tested on: NCI-H460 lung
Assay: NCI tumour cell line growth inhibition, 48 h

Structure (SMILES)	TGI
CCCc1nc(N)nc(C(=O)Nc2cccc(C(F)(F)F)c2)c1CC	> 100 µM
O=C1c2ccccc2-c2ccccc2C(=O)C1(Br)Br	35 µM
O=C1C(Cl)C(c2cc(Br)cc(Br)c2O)N1n1cnc2ccccc2c1=O (stereo not drawn)	> 100 µM
COc1nc(NC2OC(COC(C)=O)C(OC(C)=O)C(OC(C)=O)C2OC(C)=O)c2c(OC(C)=O)c(C)c(=O)oc2n1 (stereo not drawn)	3.15 µM
CC1(C)OC(=O)C(c2cccs2)C(=O)O1	> 100 µM

Tested on: SR leukemia
Assay: NCI tumour cell line growth inhibition, 48 h

Structure (SMILES)	TGI
O=C1c2ccccc2-c2ccccc2C(=O)C1(Br)Br	4.95 µM
O=C1C(Cl)C(c2cc(Br)cc(Br)c2O)N1n1cnc2ccccc2c1=O (stereo not drawn)	35.1 µM
CC1(C)OC(=O)C(c2cccs2)C(=O)O1	> 100 µM

Tested on: SN12C renal
Assay: NCI tumour cell line growth inhibition, 48 h

Structure (SMILES)	TGI
CCCc1nc(N)nc(C(=O)Nc2cccc(C(F)(F)F)c2)c1CC	> 100 µM
O=C1c2ccccc2-c2ccccc2C(=O)C1(Br)Br	24.2 µM
O=C1C(Cl)C(c2cc(Br)cc(Br)c2O)N1n1cnc2ccccc2c1=O (stereo not drawn)	91.2 µM
COc1nc(NC2OC(COC(C)=O)C(OC(C)=O)C(OC(C)=O)C2OC(C)=O)c2c(OC(C)=O)c(C)c(=O)oc2n1 (stereo not drawn)	> 100 µM
CC1(C)OC(=O)C(c2cccs2)C(=O)O1	> 100 µM

Tested on: SNB-78 CNS
Assay: NCI tumour cell line growth inhibition, 48 h

Structure (SMILES)	TGI
CCCc1nc(N)nc(C(=O)Nc2cccc(C(F)(F)F)c2)c1CC	> 100 µM
O=C1c2ccccc2-c2ccccc2C(=O)C1(Br)Br	23.4 µM
O=C1C(Cl)C(c2cc(Br)cc(Br)c2O)N1n1cnc2ccccc2c1=O (stereo not drawn)	> 100 µM
COc1nc(NC2OC(COC(C)=O)C(OC(C)=O)C(OC(C)=O)C2OC(C)=O)c2c(OC(C)=O)c(C)c(=O)oc2n1 (stereo not drawn)	> 100 µM
CC1(C)OC(=O)C(c2cccs2)C(=O)O1	> 100 µM

Tested on: DMS 114 small cell lung
Assay: NCI tumour cell line growth inhibition, 48 h

Structure (SMILES)	TGI
CCCc1nc(N)nc(C(=O)Nc2cccc(C(F)(F)F)c2)c1CC	> 100 µM
O=C1c2ccccc2-c2ccccc2C(=O)C1(Br)Br	28.5 µM
COc1nc(NC2OC(COC(C)=O)C(OC(C)=O)C(OC(C)=O)C2OC(C)=O)c2c(OC(C)=O)c(C)c(=O)oc2n1 (stereo not drawn)	> 100 µM
CC1(C)OC(=O)C(c2cccs2)C(=O)O1	> 100 µM

Tested on: SNB-75 CNS
Assay: NCI tumour cell line growth inhibition, 48 h

Structure (SMILES)	TGI
CCCc1nc(N)nc(C(=O)Nc2cccc(C(F)(F)F)c2)c1CC	> 100 µM
O=C1c2ccccc2-c2ccccc2C(=O)C1(Br)Br	17.6 µM
O=C1C(Cl)C(c2cc(Br)cc(Br)c2O)N1n1cnc2ccccc2c1=O (stereo not drawn)	85.6 µM
COc1nc(NC2OC(COC(C)=O)C(OC(C)=O)C(OC(C)=O)C2OC(C)=O)c2c(OC(C)=O)c(C)c(=O)oc2n1 (stereo not drawn)	> 100 µM
CC1(C)OC(=O)C(c2cccs2)C(=O)O1	> 100 µM

Tested on: TK-10 renal
Assay: NCI tumour cell line growth inhibition, 48 h

Structure (SMILES)	TGI
CCCc1nc(N)nc(C(=O)Nc2cccc(C(F)(F)F)c2)c1CC	> 100 µM
O=C1c2ccccc2-c2ccccc2C(=O)C1(Br)Br	24.6 µM
O=C1C(Cl)C(c2cc(Br)cc(Br)c2O)N1n1cnc2ccccc2c1=O (stereo not drawn)	> 100 µM
COc1nc(NC2OC(COC(C)=O)C(OC(C)=O)C(OC(C)=O)C2OC(C)=O)c2c(OC(C)=O)c(C)c(=O)oc2n1 (stereo not drawn)	> 100 µM
CC1(C)OC(=O)C(c2cccs2)C(=O)O1	> 100 µM

Tested on: UACC-62 melanoma
Assay: NCI tumour cell line growth inhibition, 48 h

Structure (SMILES)	TGI
CCCc1nc(N)nc(C(=O)Nc2cccc(C(F)(F)F)c2)c1CC	> 100 µM
O=C1c2ccccc2-c2ccccc2C(=O)C1(Br)Br	19.6 µM
O=C1C(Cl)C(c2cc(Br)cc(Br)c2O)N1n1cnc2ccccc2c1=O (stereo not drawn)	49.3 µM
COc1nc(NC2OC(COC(C)=O)C(OC(C)=O)C(OC(C)=O)C2OC(C)=O)c2c(OC(C)=O)c(C)c(=O)oc2n1 (stereo not drawn)	> 100 µM
CC1(C)OC(=O)C(c2cccs2)C(=O)O1	> 100 µM

Tested on: SF-295 CNS
Assay: NCI tumour cell line growth inhibition, 48 h

Structure (SMILES)	TGI
CCCc1nc(N)nc(C(=O)Nc2cccc(C(F)(F)F)c2)c1CC	> 100 µM
O=C1c2ccccc2-c2ccccc2C(=O)C1(Br)Br	29.6 µM
O=C1C(Cl)C(c2cc(Br)cc(Br)c2O)N1n1cnc2ccccc2c1=O (stereo not drawn)	54.2 µM
COc1nc(NC2OC(COC(C)=O)C(OC(C)=O)C(OC(C)=O)C2OC(C)=O)c2c(OC(C)=O)c(C)c(=O)oc2n1 (stereo not drawn)	> 100 µM
CC1(C)OC(=O)C(c2cccs2)C(=O)O1	> 100 µM

Tested on: A549 NSCLC
Assay: NCI tumour cell line growth inhibition, 48 h

Structure (SMILES)	TGI
CCCc1nc(N)nc(C(=O)Nc2cccc(C(F)(F)F)c2)c1CC	> 100 µM
O=C1c2ccccc2-c2ccccc2C(=O)C1(Br)Br	34.6 µM
O=C1C(Cl)C(c2cc(Br)cc(Br)c2O)N1n1cnc2ccccc2c1=O (stereo not drawn)	> 100 µM
COc1nc(NC2OC(COC(C)=O)C(OC(C)=O)C(OC(C)=O)C2OC(C)=O)c2c(OC(C)=O)c(C)c(=O)oc2n1 (stereo not drawn)	> 100 µM
CC1(C)OC(=O)C(c2cccs2)C(=O)O1	> 100 µM

Tested on: COLO 205 colon
Assay: NCI tumour cell line growth inhibition, 48 h

Structure (SMILES)	TGI
O=C1c2ccccc2-c2ccccc2C(=O)C1(Br)Br	20.7 µM
O=C1C(Cl)C(c2cc(Br)cc(Br)c2O)N1n1cnc2ccccc2c1=O (stereo not drawn)	93.2 µM
COc1nc(NC2OC(COC(C)=O)C(OC(C)=O)C(OC(C)=O)C2OC(C)=O)c2c(OC(C)=O)c(C)c(=O)oc2n1 (stereo not drawn)	> 100 µM
CC1(C)OC(=O)C(c2cccs2)C(=O)O1	> 100 µM

Tested on: K-562 leukemia
Assay: NCI tumour cell line growth inhibition, 48 h

Structure (SMILES)	TGI
CCCc1nc(N)nc(C(=O)Nc2cccc(C(F)(F)F)c2)c1CC	> 100 µM
O=C1c2ccccc2-c2ccccc2C(=O)C1(Br)Br	28.3 µM
O=C1C(Cl)C(c2cc(Br)cc(Br)c2O)N1n1cnc2ccccc2c1=O (stereo not drawn)	71.5 µM
COc1nc(NC2OC(COC(C)=O)C(OC(C)=O)C(OC(C)=O)C2OC(C)=O)c2c(OC(C)=O)c(C)c(=O)oc2n1 (stereo not drawn)	> 100 µM
CC1(C)OC(=O)C(c2cccs2)C(=O)O1	> 100 µM

Tested on: SK-OV-3 ovarian
Assay: NCI tumour cell line growth inhibition, 48 h

Structure (SMILES)	TGI
O=C1c2ccccc2-c2ccccc2C(=O)C1(Br)Br	33.7 µM
O=C1C(Cl)C(c2cc(Br)cc(Br)c2O)N1n1cnc2ccccc2c1=O (stereo not drawn)	42.3 µM
COc1nc(NC2OC(COC(C)=O)C(OC(C)=O)C(OC(C)=O)C2OC(C)=O)c2c(OC(C)=O)c(C)c(=O)oc2n1 (stereo not drawn)	> 100 µM
CC1(C)OC(=O)C(c2cccs2)C(=O)O1	> 100 µM

Tested on: HCT-116 colon
Assay: NCI tumour cell line growth inhibition, 48 h

Structure (SMILES)	TGI
CCCc1nc(N)nc(C(=O)Nc2cccc(C(F)(F)F)c2)c1CC	> 100 µM
O=C1c2ccccc2-c2ccccc2C(=O)C1(Br)Br	21.9 µM
O=C1C(Cl)C(c2cc(Br)cc(Br)c2O)N1n1cnc2ccccc2c1=O (stereo not drawn)	36.2 µM
